Data taken from patent US20170065564A1, “BIS-CYCLIC GUANIDINE COMPOUND COMPOSITIONS, METHODS OF USE AND TREATMENT THEREOF” (University of South Florida, priority 2014, published 2017).
In brackets after ≈: the same amount, converted by molar mass.

Tests used:
Staphylococcus aureus = assay: MIC micro broth dilution assay; format: cell-based; set-up: key to stacked score activity, 100/MIC, S: stacked score = 100/MIC; conditions: for stacked score activity, 100/MIC, S: S. aureus
Procedure, shortened: (§1)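 Strains were multidrug-resistant clinical isolates grown in LB (Gram-negative) or TSB (Gram-positive), diluted 1:1,000 before compound addition.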

Acinetobacter baumannii = assay: MIC micro broth dilution assay; format: cell-based; set-up: key to stacked score activity, 100/MIC, A: stacked score = 100/MIC; conditions: for stacked score activity, 100/MIC, A: A. baumannii
Procedure, shortened: as §1

[1] = test system: Acinetobacter baumannii biofilm; assay: Minimum biofilm eradication concentration (MBEC) assay; format: cell-based; conditions: 24 h biofilm, purified compound
Protocol: (§2) The minimum biofilm eradication concentration (MBEC) was determined in 96-well microtiter plates as follows. Broth cultures of ESKAPE strains were grown using the conditions described above. Biofilms for each of the ESKAPE pathogens were generated from these as we have previously described for S. aureus, however human serum was not used for non-staphylococcal organisms.^44 46 For all organisms, biofilms were developed by standardizing an overnight culture into fresh media to an OD600 of 0.5 and adding 150 μl into each well of a 96-well microtiter plate. […] These cultures were incubated at 37° C. overnight alongside no drug controls. After 24 hours, the media was removed from wells and the biofilm resuspended in phosphate buffered saline (PBS). Cultures were mixed by vigorous pipetting, before being serially diluted in PBS, and plated in duplicate on relevant agar. Plates were incubated at 37° C. for 24 hours, and CFUs determined by enumeration. Each analysis was performed using three technical replicates, and antibiofilm activity was determined by comparing treated to untreated samples.

[2] = test system: Enterobacter cloacae biofilm; assay: as above; format: cell-based; conditions: 24 h biofilm, purified compound
Protocol: as §2

[3] = test system: Enterococcus faecium biofilm; assay: as above; format: cell-based; conditions: 24 h biofilm, purified compound
Protocol: as §2

[4] = test system: Klebsiella pneumoniae biofilm; assay: as above; format: cell-based; conditions: 24 h biofilm, purified compound
Protocol: as §2

[5] = test system: Pseudomonas aeruginosa biofilm; assay: as above; format: cell-based; conditions: 24 h biofilm, purified compound
Protocol: as §2

[6] = test system: Staphylococcus aureus biofilm; assay: as above; format: cell-based; conditions: 24 h biofilm, purified compound
Protocol: as §2

human A549 cells = assay: Cytotoxicity assay (MTT); format: cell-based; conditions: for IC50: MTT, 48 hours
Protocol: Cytotoxicity assays were performed using human A549 cells (adenocarcinomic human alveolar epithelial cells), as described by us previously.^44 Briefly, cells were cultured in F-12K Nutrient mixture (Kaighn's Modification) media containing L-glutamine, supplemented with 10% fetal bovine serum and 1% penicillin-streptomycin for 3 days at 37° and 5% CO2. Cells were then diluted to 1.0×10^5 ml^−1 using F-12K supplemented media, and added to 96 well tissue culture plates at a volume of 100 μl. Plates were incubated for 24 hours at 37° C. and 5% CO2, allowing the cells to adhere to the plastic. […] Plates were then incubated for 48 hours at 37° C. and 5% CO2. After 48 hours the media was removed, and new media added containing MTT (3-(4, 5-dimethylthiazol-2-yl)-2, 5-diphenyltetrazolium bromide), followed by incubation for four hours at 37° C. and 5% CO2. After 4 h, 50 μl of media was removed, replaced with DMSO and incubated for ten minutes at 37° C. in order to solubilize any formazan produced. A Biotek plate reader was used to measure the absorbance of formazan production at […], and IC50 values were determined for each of the five compounds. Front runners were solvated in 45% w/v (2-hydroxypropyl)-β-cyclodextrin in water for these studies; which was also used alone as a negative control. IC50 values were determined for each compound by comparison to vehicle only controls, to assess toxicity to human cells.

A. baumannii = assay: Resistance serial passage assay; format: cell-based, Acinetobacter baumannii; conditions: 8 passages, concentration doubled each day
Protocol: ESKAPE pathogens were grown overnight in liquid media at 37° C. These cultures were then diluted 1:100 in fresh media, and seeded into a 96-well plate. Lead bis-cyclic guanidines or control agents were added to respective wells at half MIC concentrations. Plates were then incubated for 24 hours at 37° C., with bacteria removed from these cultures on the following day, to inoculate fresh media (1:100 dilution) containing compounds at a 2-fold higher concentrations. These were then grown overnight, and the procedure repeated for a total of eight days. […] Each experiment was performed in triplicate, yielding identical results.

[7] = above 45 μM, at concentrations up to 225 μM

CCCCCCCN1C(=N)N(CCCC[C@H]2CNC(=N)N2CCc2cccc(C(F)(F)F)c2)C[C@@H]1CC1CCCCC1 [Compound 7]
stacked score activity, 100/MIC, S (Staphylococcus aureus): 33
MIC (Staphylococcus aureus; Staphylococcus aureus, S. aureus isolate 542): 2 µM (≈ 1.18 µg/mL)
MIC (Staphylococcus aureus; Staphylococcus aureus, S. aureus isolate 626): 2 µM (≈ 1.18 µg/mL)
MIC (Staphylococcus aureus; Staphylococcus aureus, S. aureus isolate 635): 2 µM (≈ 1.18 µg/mL)
MIC (Staphylococcus aureus; Staphylococcus aureus, S. aureus isolate 648): 2 µM (≈ 1.18 µg/mL)
MIC (Staphylococcus aureus; Staphylococcus aureus, S. aureus isolate 690): 2 µM (≈ 1.18 µg/mL)
MIC (Staphylococcus aureus; Staphylococcus aureus, S. aureus isolate 693): 2 µM (≈ 1.18 µg/mL)
MIC (Staphylococcus aureus; Staphylococcus aureus, S. aureus isolate 715): 2 µM (≈ 1.18 µg/mL)
MIC (Staphylococcus aureus; Staphylococcus aureus, S. aureus isolate 728): 2 µM (≈ 1.18 µg/mL)
MIC (Staphylococcus aureus; Staphylococcus aureus, S. aureus isolate 834): 2 µM (≈ 1.18 µg/mL)
MIC (Staphylococcus aureus; Staphylococcus aureus, S. aureus isolate 1043): 2 µM (≈ 1.18 µg/mL)
MIC (Staphylococcus aureus; Staphylococcus aureus, S. aureus isolate 1049): 2 µM (≈ 1.18 µg/mL)
MIC (Staphylococcus aureus; Staphylococcus aureus, purified compound, Table 1): 1.52 µM (≈ 0.898 µg/mL)
stacked score activity, 100/MIC, A (Acinetobacter baumannii): 25
MIC (Acinetobacter baumannii; Acinetobacter baumannii, A. baumannii isolate 1403): 2 µM (≈ 1.18 µg/mL)
MIC (Acinetobacter baumannii; Acinetobacter baumannii, A. baumannii isolate 1643): 2 µM (≈ 1.18 µg/mL)
MIC (Acinetobacter baumannii; Acinetobacter baumannii, A. baumannii isolate 1644): 2 µM (≈ 1.18 µg/mL)
MIC (Acinetobacter baumannii; Acinetobacter baumannii, A. baumannii isolate 1647): 2 µM (≈ 1.18 µg/mL)
MIC (Acinetobacter baumannii; Acinetobacter baumannii, A. baumannii isolate 1648): 2 µM (≈ 1.18 µg/mL)
MIC (Acinetobacter baumannii; Acinetobacter baumannii, A. baumannii isolate 1649): 2 µM (≈ 1.18 µg/mL)
MIC (Acinetobacter baumannii; Acinetobacter baumannii, A. baumannii isolate 1650): 2 µM (≈ 1.18 µg/mL)
MIC (Acinetobacter baumannii; Acinetobacter baumannii, A. baumannii isolate 1651): 2 µM (≈ 1.18 µg/mL)
MIC (Acinetobacter baumannii; Acinetobacter baumannii, A. baumannii isolate 1653): 2 µM (≈ 1.18 µg/mL)
MIC (Acinetobacter baumannii; Acinetobacter baumannii, A. baumannii isolate 1654): 2 µM (≈ 1.18 µg/mL)
MIC (Acinetobacter baumannii; Acinetobacter baumannii, purified compound, Table 1): 1.52 µM (≈ 0.898 µg/mL)
MBEC50 [1]: 13.10 µM
MBEC50 [2]: 14.54 µM
MBEC50 [3]: 26.30 µM
MBEC50 [4]: 4.81 µM
MBEC50 [5]: 45.56 µM
MBEC50 [6]: 4.35 µM
IC50 (human A549 cells; Homo sapiens, A549): 65.7 µM
A549 cell recovery compared to vehicle only controls (human A549 cells; [7]): ≥ 33%
increase in MIC after serial passage (A. baumannii): 8 fold

CCCCCCCN1C(=N)N(CCCC[C@H]2CNC(=N)N2CCC23CC4CC(CC(C4)C2)C3)C[C@@H]1CCCC [Compound 19]
stacked score activity, 100/MIC, S (Staphylococcus aureus): 33
MIC (Staphylococcus aureus; S. aureus isolate 542): 2.0 µM (≈ 1.08 µg/mL)
MIC (Staphylococcus aureus; S. aureus isolate 626): 2.0 µM (≈ 1.08 µg/mL)
MIC (Staphylococcus aureus; S. aureus isolate 635): 2.0 µM (≈ 1.08 µg/mL)
MIC (Staphylococcus aureus; S. aureus isolate 648): 2.0 µM (≈ 1.08 µg/mL)
MIC (Staphylococcus aureus; S. aureus isolate 690): 2.0 µM (≈ 1.08 µg/mL)
MIC (Staphylococcus aureus; S. aureus isolate 693): 2.0 µM (≈ 1.08 µg/mL)
MIC (Staphylococcus aureus; S. aureus isolate 715): 2.0 µM (≈ 1.08 µg/mL)
MIC (Staphylococcus aureus; S. aureus isolate 728): 2.0 µM (≈ 1.08 µg/mL)
MIC (Staphylococcus aureus; S. aureus isolate 834): 2.0 µM (≈ 1.08 µg/mL)
MIC (Staphylococcus aureus; S. aureus isolate 1043): 2.0 µM (≈ 1.08 µg/mL)
MIC (Staphylococcus aureus; S. aureus isolate 1049): 2.0 µM (≈ 1.08 µg/mL)
MIC (Staphylococcus aureus; purified compound, Table 1): 1.66 µM (≈ 0.898 µg/mL)
stacked score activity, 100/MIC, A (Acinetobacter baumannii): 25
MIC (Acinetobacter baumannii; A. baumannii isolate 1403): 2.0 µM (≈ 1.08 µg/mL)
MIC (Acinetobacter baumannii; A. baumannii isolate 1643): 2.0 µM (≈ 1.08 µg/mL)
MIC (Acinetobacter baumannii; A. baumannii isolate 1644): 2.0 µM (≈ 1.08 µg/mL)
MIC (Acinetobacter baumannii; A. baumannii isolate 1647): 2.0 µM (≈ 1.08 µg/mL)
MIC (Acinetobacter baumannii; A. baumannii isolate 1648): 2.0 µM (≈ 1.08 µg/mL)
MIC (Acinetobacter baumannii; A. baumannii isolate 1649): 2.0 µM (≈ 1.08 µg/mL)
MIC (Acinetobacter baumannii; A. baumannii isolate 1650): 2.0 µM (≈ 1.08 µg/mL)
MIC (Acinetobacter baumannii; A. baumannii isolate 1651): 2.0 µM (≈ 1.08 µg/mL)
MIC (Acinetobacter baumannii; A. baumannii isolate 1653): 2.0 µM (≈ 1.08 µg/mL)
MIC (Acinetobacter baumannii; A. baumannii isolate 1654): 2.0 µM (≈ 1.08 µg/mL)
MIC (Acinetobacter baumannii; purified compound, Table 1): 1.66 µM (≈ 0.898 µg/mL)
MBEC50 [1]: 24.07 µM
MBEC50 [2]: 15.14 µM
MBEC50 [3]: 13.27 µM
A549 cell recovery compared to vehicle only controls (human A549 cells; 225 μM (highest concentration tested)): > 70%
IC50 (human A549 cells): 146 µM
A549 cell recovery compared to vehicle only controls (human A549 cells; [7]): ≥ 26%
A549 cell recovery compared to vehicle only controls (human A549 cells; concentrations up to 45 μM): > 97%
increase in MIC after serial passage (A. baumannii): 8 fold
